Where a name gives a salt, the structure may show the parent alone.
Tests used:
PC12/HttN90Q103 cells [1] = experiment: CellTiter-Blue assay, rescue of HttN90Q103-induced cell death; type: cell-based, rat
Excerpt: (§1) In this stable PC12 line (PC12/HttN90Q103), transcription of the Htt transgene is driven by an ecdysone-regulated promoter such that the expression of HttN90Q103 can be turned on or off by the addition or removal of the non-steroidal ecdysone analog tebufenozide (teb).
(§2) Using the engineered PC12/HttN90Q103 cell line together with Perkin Elmer's ATPlite™ assay kit or CellTiter-Blue™ assay, a high throughput assay to screen small molecules for their ability to prevent mutant Htt exon 1-induced cell death was developed and optimized.
(§3) The following formulas were used to calculate mutant Htt-induced cytotoxicity and test compound rescue: % killing=[(un-induced−induced-DMSO treated)/un-induced]×100 % rescue=[(drug treated−induced-DMSO treated)/(un-induced−induced-DMSO treated)]×100
For single-agent ranking, the assay was performed in 384-well plates to obtain duplicate dose response curves in 12-step dilutions with a dosing ratio f=2 over 3 orders of magnitude.
The uncertainty of each fitted parameter was estimated from the range over which the change in reduced chi-squared was less than one, or less than minimum reduced chi-squared if that minimum exceeded one, to allow for underestimated σI errors.
(§4) Day 1—Add Compounds 4 hours post-induction • 1) Remove compound plates from dessicator. • 2) Using the PlateMate, prepare dilution plate with 100 μL per well of the complete cell medium at room temperature in clear untreated 384-well plates. • 3) Using the MiniTrak, make compound dilution plates: 1 μL from each well of stock plates into 100 μL of media in the dilution plate for a 1:100 dilution (10× stock in media). • 4) Using the MiniTrak, add 4.5 μL of the diluted stock to each well of cells in assay plates. • 5) Make positive control solution: dilute 20 mM stock of BOC-D-FMK in media for a 10× stock. • 6) Manually add 4.5 μL positive control to C1-N1. • 7) Incubate plates at 37° C. for three days. • (for ranking combinations, steps 5 and 6 are omitted as there is positive control on the compound plates)
Day 4—CellTiter-Blue™ assay • 1) Make solution of 5% CellTiter-Blue™ in Q103 media. • 2) Using the Multidrop, add 40 μL of 5% CellTiter-Blue™ solution to each well of the assay plates. • 3) Incubate plates with CellTiter-Blue™ at 37° C.

PC12/HttN90Q103 cells [2] = experiment: ATPlite assay, rescue of HttN90Q103-induced cell death; type: cell-based, rat
Excerpt: as §1, §2, §3
For single-agent ranking, the assay was performed in 384-well plates to obtain duplicate dose response curves in 12-step dilutions with a dosing ratio f=2 over 3 orders of magnitude. […]
as §4
Day 4—Perform ATPlite™ Assay • 1) Take plates out of the incubator. • 2) Using the PlateMate, add 40 μL of ATPlite™ 1-step solution (Perkin Elmer) to each well of the assay plates. • 3) Wait ten minutes to allow plates to dark-adapt. • 4) Read luminescence intensity in Wallac plate reader using […]

[3] = CellTiter-Blue, single agent, 250 nM tebufenozide induction
[4] = CellTiter-Blue, single agent, sigmoidal fit of 12-step dose response, read-out: EC50
[5] = Rattus norvegicus, PC-12, CellTiter-Blue, single agent, 250 nM tebufenozide induction, read-out: Max Effect (% rescue)
[6] = Rattus norvegicus, PC-12, CellTiter-Blue, single agent, sigmoidal fit of 12-step dose response, read-out: EC50
[7] = Rattus norvegicus, PC-12, read-out: Max Effect (% rescue)

Molecule	Emax (PC12/HttN90Q103 cells [1]; [5]) [%]	EC50 (PC12/HttN90Q103 cells [1]; [6]) [µM]	other results
CN1c2c(nc(N)[nH]c2=O)NCC1CNc1ccc(C(=O)N[C@@H](CCC(=O)O)C(=O)O)cc1 (stereo partly drawn) [5-methyl-5-6-7-8-tetrahydropteroylglutamic-acid]	–	–	Max Effect (% rescue) (PC12/HttN90Q103 cells [1]; [3]): 34%; EC50 (PC12/HttN90Q103 cells [1]; [4]): 9.3 µM
CC(=O)c1ccc(S(=O)(=O)NC(=O)NC2CCCCC2)cc1 [Acetohexamide]	18	3.9	–
NC(=O)c1ncn([C@@H]2O[C@H](CO)[C@@H](O)[C@H]2O)c1N [Aicar]	–	–	Max Effect (% rescue) (PC12/HttN90Q103 cells [1]; [3]): 23%; EC50 (PC12/HttN90Q103 cells [1]; [4]): 14.1 µM
C=C1/C(=C\C=C2/CCC[C@]3(C)[C@@H]([C@H](C)CCCC(C)(C)O)CC[C@@H]23)C[C@@H](O)C[C@@H]1O [Calcitriol]	–	–	EC50 (PC12/HttN90Q103 cells [1]; Rattus norvegicus, PC-12): 0.01 µM; Emax (PC12/HttN90Q103 cells [1]; [7]): 33%
C[N+](C)(C)CCOC(N)=O [Carbachol]	15	6.8	–
COC(=O)CC[C@@H](C)[C@H]1CC[C@H]2[C@@H]3[C@H](OC(C)=O)C[C@@H]4C[C@H](OC(C)=O)CC[C@]4(C)[C@H]3CC[C@]12C [Chenodeoxycholic acid diacetate methyl ester]	–	–	Max Effect (% rescue) (PC12/HttN90Q103 cells [1]; [3]): 24%; EC50 (PC12/HttN90Q103 cells [1]; [4]): 2.1 µM
O=c1cc(-c2ccccc2)oc2cc(O)cc(O)c12 [Chrysin]	14	1.1	–
Oc1ccc(Cl)cc1Cc1ccccc1 [Clorophene]	30	0.9	–
C[C@]12CC[C@H](O)CC1=CC[C@@H]1[C@@H]2CC[C@]2(C)C(=O)CC[C@@H]12 [Dehydroepiandrosterone]	21	11	–
C[C@H]1O[C@@H](O[C@H]2[C@@H](O)C[C@H](O[C@H]3[C@@H](O)C[C@H](O[C@H]4CC[C@@]5(C)[C@H](CC[C@@H]6[C@@H]5CC[C@]5(C)[C@@H](C7=CC(=O)OC7)CC[C@]65O)C4)O[C@@H]3C)O[C@@H]2C)C[C@H](O)[C@@H]1O [Digitoxin]	11	3.5	–
c1ccc2c(c1)[I+]c1ccccc1-2 [Diphenyleneiodonium]	26	0.1	–
C=C1C[C@@H]2[C@H](CC[C@]3(C)C(=O)CC[C@@H]23)[C@@]2(C)C=CC(=O)C=C12 [Exemestane]	16	1.5	–
COc1ccc(CNC(=O)Nc2ncc([N+](=O)[O-])s2)cc1 [GSK-3β inhibitor VIII (AR-A014418), N-(4-Methoxybenzyl)-N′-(5-nitro-1,3-thiazol-2-yl)urea]	43	3.6	–
O=C1NCCC1=Cc1ccc2c(c1)OCO2 [Heat shock protein inhibitor I (KNK-437), 3,4-methylenedioxy-benzylidine-γ-butyrolactam]	–	–	Max Effect (% rescue) (PC12/HttN90Q103 cells [1]; [3]): 20%; EC50 (PC12/HttN90Q103 cells [1]; [4]): 8.2 µM
C=C[C@@]1(C)CC(=O)[C@]2(O)[C@@]3(C)[C@@H](O)CCC(C)(C)[C@@H]3[C@H](OC(=O)CCN(C)C)[C@H](OC(C)=O)[C@@]2(C)O1 [NKH-477, 6-(3-dimethylaminopropionyl)forskolin]	–	–	Max Effect (% rescue) (PC12/HttN90Q103 cells [1]; [3]): 69%; EC50 (PC12/HttN90Q103 cells [1]; [4]): 7.2 µM
CO[C@@H]1[C@@H](OC(N)=O)[C@@H](O)[C@H](Oc2ccc3c(O)c(NC(=O)c4ccc(O)c(CC=C(C)C)c4)c(=O)oc3c2C)OC1(C)C [Novobiocin]	27	3	–
Cl.NCCc1ccc(S(=O)(=O)F)cc1 [Pefabloc SC]	–	–	Max Effect (% rescue) (PC12/HttN90Q103 cells [1]; [3]): 34%; EC50 (PC12/HttN90Q103 cells [1]; [4]): 6.8 µM
Cc1ccc(C(=O)Cn2c3c(sc2=N)CCCC3)cc1 [Pifithrin α, 2-(2-imino-4,5,6,7-tetrahydrobenzothiazol-3-yl)-1-p-tolylethanone hydrobromide]	15	6	–
CC(=O)[C@H]1CC[C@H]2[C@@H]3CC=C4C[C@@H](O)CC[C@]4(C)[C@H]3CC[C@]12C [Pregnenolone, 5-pregnen-3β-ol-20-one]	–	–	Max Effect (% rescue) (PC12/HttN90Q103 cells [1]; [3]): 22%; EC50 (PC12/HttN90Q103 cells [1]; [4]): 11.9 µM
C=CC[C@@H]1/C=C(\C)C[C@H](C)C[C@H](OC)[C@H]2O[C@@](O)(C(=O)C(=O)N3CCCC[C@H]3C(=O)O[C@H](/C(C)=C/[C@@H]3CC[C@@H](O)[C@H](OC)C3)[C@H](C)[C@@H](O)CC1=O)[C@H](C)C[C@@H]2OC [Tacrolimus (FK-506), Tacrolimus]	36	0.1	–
C[C@]12C=CC(=O)C=C1CC[C@@H]1[C@@H]2CC[C@]2(C)OC(=O)CC[C@@H]12 [Testolactone]	52	7.6	–
Cc1c(C)c2c(c(C)c1O)CCC(C)(COc1ccc(CC3SC(=O)NC3=O)cc1)O2 (stereo not drawn) [Troglitazone]	49	17.8	–
CN1CCN(C(=O)OC2c3nccnc3C(=O)N2c2ccc(Cl)cn2)CC1 (stereo not drawn) [Zopiclone]	–	–	EC50 (PC12/HttN90Q103 cells [2]; Rattus norvegicus, PC-12): 6.7 µM; Emax (PC12/HttN90Q103 cells [2]; [7]): 25%
Maduramicin NH4	–	–	Max Effect (% rescue) (PC12/HttN90Q103 cells [2]; ATPlite, single agent, 250 nM tebufenozide induction): 19%; EC50 (PC12/HttN90Q103 cells [2]; ATPlite, single agent, sigmoidal fit of 12-step dose response, read-out: EC50): 0.04 µM
